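Where inhibition never reached the appropriate level, the endpoint shown equals the highest concentration tested. Otherwise, values were interpolated linearly from a five-concentration, 48-hour dose response in 96-well plates. Abbreviation: GI50, concentration required for 50% inhibition of growth. Definition used: TGI = concentration required for complete inhibition of growth.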
Tests used:
Experiment in all cases: growth of human tumour cells (NCI), 48 h
RXF 393 renal = system: RXF 393 renal
IGROV1 ovarian = system: IGROV1 ovarian
SF-268 CNS = system: SF-268 CNS
SK-MEL-2 melanoma = system: SK-MEL-2 melanoma
UACC-62 melanoma = system: UACC-62 melanoma
NCI-H522 lung = system: NCI-H522 lung
OVCAR-4 ovarian = system: OVCAR-4 ovarian
HS 578T breast = system: HS 578T breast
OVCAR-8 ovarian = system: OVCAR-8 ovarian
MDA-MB-231 breast = system: MDA-MB-231 breast
786-0 renal = system: 786-0 renal
ACHN renal = system: ACHN renal
BT-549 breast = system: BT-549 breast
UO-31 renal = system: UO-31 renal
HCC-2998 colon = system: HCC-2998 colon
LOX IMVI melanoma = system: LOX IMVI melanoma
RPMI-8226 leukemia = system: RPMI-8226 leukemia
K-562 leukemia = system: K-562 leukemia
OVCAR-5 ovarian = system: OVCAR-5 ovarian
KM12 colon = system: KM12 colon
NCI-H226 lung = system: NCI-H226 lung
TK-10 renal = system: TK-10 renal
SR leukemia = system: SR leukemia
SK-MEL-28 melanoma = system: SK-MEL-28 melanoma
HCT-116 colon = system: HCT-116 colon
HL-60(TB) leukemia = system: HL-60(TB) leukemia
SK-MEL-5 melanoma = system: SK-MEL-5 melanoma
SF-295 CNS = system: SF-295 CNS
CCRF-CEM leukemia = system: CCRF-CEM leukemia
SW-620 colon = system: SW-620 colon
UACC-257 melanoma = system: UACC-257 melanoma
MDA-MB-435 = system: MDA-MB-435
HOP-92 NSCLC = system: HOP-92 NSCLC
COLO 205 colon = system: COLO 205 colon
SF-539 CNS = system: SF-539 CNS
OVCAR-3 ovarian = system: OVCAR-3 ovarian
CAKI-1 renal = system: CAKI-1 renal
HOP-62 NSCLC = system: HOP-62 NSCLC
MOLT-4 leukemia = system: MOLT-4 leukemia
A549 NSCLC = system: A549 NSCLC
PC-3 prostate = system: PC-3 prostate
DU-145 prostate = system: DU-145 prostate
U251 CNS = system: U251 CNS
A498 renal = system: A498 renal
MALME-3M melanoma = system: MALME-3M melanoma
NCI-H23 lung = system: NCI-H23 lung
SK-OV-3 ovarian = system: SK-OV-3 ovarian
HT29 colon = system: HT29 colon
MCF7 breast = system: MCF7 breast
SNB-19 CNS = system: SNB-19 CNS
T-47D breast = system: T-47D breast
NCI-H460 lung = system: NCI-H460 lung
EKVX NSCLC = system: EKVX NSCLC
HCT-15 colon = system: HCT-15 colon
SN12C renal = system: SN12C renal
MDA-MB-468 breast = system: MDA-MB-468 breast
M14 melanoma = system: M14 melanoma

CN(C)c1nc(NCCNS(=O)(=O)c2ccc(C(=O)/C=C/c3ccc(F)cc3)cc2)nc(N2CCOCC2)n1
GI50 (RXF 393 renal): 8.82 µM
TGI (RXF 393 renal): 21.2 µM
GI50 (IGROV1 ovarian): 2.27 µM
TGI (IGROV1 ovarian): 6.18 µM
GI50 (SF-268 CNS): 15 µM
TGI (SF-268 CNS): 37.5 µM
GI50 (SK-MEL-2 melanoma): 13.7 µM
TGI (SK-MEL-2 melanoma): 26.8 µM
GI50 (UACC-62 melanoma): 10.8 µM
TGI (UACC-62 melanoma): 23 µM
GI50 (NCI-H522 lung): 13.3 µM
TGI (NCI-H522 lung): 26.6 µM
GI50 (OVCAR-4 ovarian): 11.9 µM
TGI (OVCAR-4 ovarian): 24.7 µM
GI50 (HS 578T breast): 14.6 µM
TGI (HS 578T breast): 54.6 µM
GI50 (OVCAR-8 ovarian): 14.7 µM
TGI (OVCAR-8 ovarian): 28.2 µM
GI50 (MDA-MB-231 breast): 12.3 µM
TGI (MDA-MB-231 breast): 25.3 µM
GI50 (786-0 renal): 14.5 µM
TGI (786-0 renal): 28.7 µM
GI50 (ACHN renal): 13.1 µM
TGI (ACHN renal): 26 µM
GI50 (BT-549 breast): 15.1 µM
TGI (BT-549 breast): 29.2 µM
GI50 (UO-31 renal): 11 µM
TGI (UO-31 renal): 23 µM
GI50 (HCC-2998 colon): 16 µM
TGI (HCC-2998 colon): 29.9 µM
GI50 (LOX IMVI melanoma): 1.63 µM
TGI (LOX IMVI melanoma): 3.17 µM
GI50 (RPMI-8226 leukemia): 1.91 µM
TGI (RPMI-8226 leukemia): 5.07 µM
GI50 (K-562 leukemia): 3.7 µM
TGI (K-562 leukemia): > 100 µM
GI50 (OVCAR-5 ovarian): 13.6 µM
TGI (OVCAR-5 ovarian): 26.8 µM
GI50 (KM12 colon): 13.4 µM
TGI (KM12 colon): 30.6 µM
GI50 (NCI-H226 lung): 12.3 µM
TGI (NCI-H226 lung): 28.2 µM
GI50 (TK-10 renal): 15.3 µM
TGI (TK-10 renal): 28.7 µM
GI50 (SR leukemia): 3.45 µM
TGI (SR leukemia): > 100 µM
GI50 (SK-MEL-28 melanoma): 14.9 µM
TGI (SK-MEL-28 melanoma): 28.2 µM
GI50 (HCT-116 colon): 2.29 µM
TGI (HCT-116 colon): 5.25 µM
GI50 (HL-60(TB) leukemia): 14.7 µM
TGI (HL-60(TB) leukemia): > 100 µM
GI50 (SK-MEL-5 melanoma): 15.7 µM
TGI (SK-MEL-5 melanoma): 29.2 µM
GI50 (SF-295 CNS): 11.3 µM
TGI (SF-295 CNS): 23.8 µM
GI50 (CCRF-CEM leukemia): 6.58 µM
TGI (CCRF-CEM leukemia): 39.1 µM
GI50 (SW-620 colon): 3.39 µM
TGI (SW-620 colon): 12.3 µM
GI50 (UACC-257 melanoma): 15.5 µM
TGI (UACC-257 melanoma): 29.2 µM
GI50 (MDA-MB-435): 11.6 µM
TGI (MDA-MB-435): 24.6 µM
GI50 (HOP-92 NSCLC): 12.7 µM
TGI (HOP-92 NSCLC): 28.5 µM
GI50 (COLO 205 colon): 14.6 µM
TGI (COLO 205 colon): 30.2 µM
GI50 (SF-539 CNS): 13.2 µM
TGI (SF-539 CNS): 25.9 µM
GI50 (OVCAR-3 ovarian): 14.6 µM
TGI (OVCAR-3 ovarian): 28.5 µM
GI50 (CAKI-1 renal): 9.5 µM
TGI (CAKI-1 renal): 21.9 µM
GI50 (HOP-62 NSCLC): 16.1 µM
TGI (HOP-62 NSCLC): 31.5 µM
GI50 (MOLT-4 leukemia): 4.69 µM
TGI (MOLT-4 leukemia): > 100 µM
GI50 (A549 NSCLC): 13.7 µM
TGI (A549 NSCLC): 27.9 µM
GI50 (PC-3 prostate): 11.2 µM
TGI (PC-3 prostate): 25.5 µM
GI50 (DU-145 prostate): 14.4 µM
TGI (DU-145 prostate): 27.8 µM
GI50 (U251 CNS): 4.74 µM
TGI (U251 CNS): 16.7 µM
GI50 (A498 renal): 11.9 µM
TGI (A498 renal): 24.4 µM
GI50 (MALME-3M melanoma): 14.6 µM
TGI (MALME-3M melanoma): 28.2 µM
GI50 (NCI-H23 lung): 14.6 µM
TGI (NCI-H23 lung): 28.1 µM
GI50 (SK-OV-3 ovarian): 13.8 µM
TGI (SK-OV-3 ovarian): 27.6 µM
GI50 (HT29 colon): 2.85 µM
TGI (HT29 colon): 8.39 µM
GI50 (MCF7 breast): 2.99 µM
TGI (MCF7 breast): 11.2 µM
GI50 (SNB-19 CNS): 13.4 µM
TGI (SNB-19 CNS): 26.5 µM
GI50 (T-47D breast): 11.9 µM
TGI (T-47D breast): 33.5 µM
GI50 (NCI-H460 lung): 15.7 µM
TGI (NCI-H460 lung): 33 µM
GI50 (EKVX NSCLC): 14.4 µM
TGI (EKVX NSCLC): 27.8 µM
GI50 (HCT-15 colon): 2.15 µM
TGI (HCT-15 colon): 4.92 µM
GI50 (SN12C renal): 12 µM
TGI (SN12C renal): 24.4 µM
GI50 (MDA-MB-468 breast): 8.08 µM
TGI (MDA-MB-468 breast): 22.6 µM
GI50 (M14 melanoma): 15 µM
TGI (M14 melanoma): 30.5 µM
